Values of other authors in patent US20100143322A1, “USE OF INHIBITORS OF N-METHYL TRANSFERASES FOR THE THERAPY OF PARKINSON'S DISEASE” (priority 2005, published 2010).

Biological target: T1, phenylethanolamine N-methyl transferase (PNMT) (Homo sapiens, UniProt P11086)
T1 sequence (P11086 1-282): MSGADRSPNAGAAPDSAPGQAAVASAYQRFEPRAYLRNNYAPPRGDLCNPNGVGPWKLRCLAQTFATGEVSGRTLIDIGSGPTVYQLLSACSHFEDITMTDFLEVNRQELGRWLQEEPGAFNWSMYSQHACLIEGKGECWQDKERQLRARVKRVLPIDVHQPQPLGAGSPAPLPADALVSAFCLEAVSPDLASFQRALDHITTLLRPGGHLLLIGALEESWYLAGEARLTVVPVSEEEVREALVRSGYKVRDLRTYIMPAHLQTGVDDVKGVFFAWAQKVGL
Settings: less than 2 mg of Ala-Cys-Cys, isolated from rabbit liver and purified

inhibition of the PNMT in the PNMT test: > 90%
Substance: Ala-Cys-Cys
